Results as given in patent US20080194585A1, “Fungicidal Pyrazine Derivatives” (priority 2005, published 2008).
Marks after values point to notes of the source that are not given here.

Columns and labels:
[1] = test system: Pythium aphanidermatum; assay: Test A: bluegrass pythium blight, preventive spray on bluegrass seedlings; settings: for Test A disease control rating: 100 = 100% disease control; for pest or weed control at 200 ppm: Pythium aphanidermatum, 120 h, read-out: Test A disease control rating
[2] = test system: Phytophthora infestans; assay: whole plant or invertebrate; type: in vivo; settings: for Test F disease control rating: 100 = 100% disease control; for pest or weed control at 200 ppm: Phytophthora infestans, in Solanum lycopersicum, topical, 144 h, read-out: Test F disease control rating
[3] = test system: Septoria nodorum; assay: Test H: wheat glum blotch, preventive spray on wheat seedlings; settings: 100 = 100% disease control; for Test H disease control rating: 40 ppm (marked *)
Method: (the causal agent of wheat glum blotch) and incubated in a saturated atmosphere at 20° C. for 48 h, and then moved to a growth chamber at 22° C. for 5 days, after which disease ratings were made.

[4] = test system: fusarium graminearium; assay: Test I: wheat head scab, preventive spray on wheat seedlings; settings: 100 = 100% disease control; for pest or weed control at 200 ppm: Fusarium, in Triticum aestivum, topical, 192 h, read-out: Test I disease control rating, 200 ppm
Method: (the causal agent of wheat head scab) and incubated in a saturated atmosphere at 20° C. for 72 h, and then moved to a growth chamber at 22° C. for 5 days, after which disease ratings were made.

[5] = test system: Rhizoctonia oryzae; assay: Test G: turf brown patch, preventive spray on creeping bent grass seedlings; settings: 100 = 100% disease control; for Test G disease control rating: 40 ppm (marked *)
Method: (the causal agent of turf brown patch) and incubated in a saturated atmosphere at 27° C. for 24 h, and then moved to a growth chamber at 27° C. for 5 days, after which disease ratings were made.

[6] = test system: Colletotrichum orbiculare; assay: Test B: cucumber Colletotrichum anthracnose, preventive spray on cucumber seedlings; settings: 100 = 100% disease control; for Test B disease control rating: 40 ppm (marked *)
[7] = test system: Plasmopara viticola; assay: Test D: grape downy mildew, spray after inoculation of grape seedlings; type: in vivo; settings: 100 = 100% disease control; for pest or weed control at 200 ppm: Plasmopara viticola, 168 h, read-out: Test D disease control rating
Source text: Upon removal, disease ratings were made. […] A dash (-) indicates no test results.

[8] = test system: Septoria tritici; assay: Test J: wheat leaf blotch, preventive spray on wheat seedlings; type: in vivo; settings: 40 ppm (marked *), 100 = 100% disease control, 0 = no control; for pest or weed control at 40 ppm: Zymoseptoria tritici, 528 h, read-out: Test J disease control rating
Source text: A dash (-) indicates no test results.

[9] = test system: Botrytis cinerea; assay: Test E: tomato botrytis, preventive spray on tomato seedlings; settings: for Test E disease control rating: 40 ppm (marked *), 100 = 100% disease control, 0 = no control
[10] = test system: Erysiphe graminis f. sp. tritici; assay: Test L: wheat powdery mildew, preventive spray on wheat seedlings; settings: 100 = 100% disease control; for Test L disease control rating: 40 ppm (marked *)
[11] = 40 ppm (marked *), 0 = no control
[12] = 0 = no control relative to controls
[13] = 200 ppm, 0 = no control relative to controls
[14] = Botrytis cinerea, in Solanum lycopersicum, topical, 72 h, read-out: Test E disease control rating

Row | SMILES | Test A disease control rating [1, 11] | Test F disease control rating [2, 11] | Test H disease control rating ([3]; 0 = no control) | Test I disease control rating [4, 11] | Test G disease control rating ([5]; 0 = no control) | Test B disease control rating ([6]; 0 = no control) | Test D disease control rating [7, 11] | Test J disease control rating [8] | Test E disease control rating [9] | Test L disease control rating ([10]; 0 = no control) | also measured
1 | Nn1c(-c2c(F)cccc2F)c(Cl)nc(-n2cccn2)c1=O [Compound 400, 1-Amino-5-chloro-6-(2,6-difluorophenyl)-3-(1H-pyrazol-1-)-2(1H)-pyrazinone] | 0* % | 0* % | 0* % | 0* % | 0* % | 0* % | 0* % | 0* % | 0* % |  | 
2 | NC(=O)c1nc(Cl)c(-c2c(F)cc(F)cc2F)n(-c2cccc(F)c2)c1=O [Compound 414, 6-Chloro-4-(3-fluorophenyl)-3,4-dihydro-3-oxo-5-(2,4,6-trifluorophenyl)pyrazinecarboxamide] |  |  |  |  |  |  |  |  |  |  | pest or weed control at 200 ppm [1]: 95%; pest or weed control at 40 ppm ([10]; Blumeria graminis, in Triticum aestivum, 168 h, read-out: Test L disease control rating, 40 ppm (marked *), 0 = no control): 98%; pest or weed control at 200 ppm [2]: 85%; pest or weed control at 40 ppm ([3]; Parastagonospora nodorum, in Triticum aestivum, topical, 168 h, read-out: Test H disease control rating, 40 ppm (marked *), 0 = no control): 0%; pest or weed control at 200 ppm [4, 12]: 35%; pest or weed control at 40 ppm ([5]; Waitea circinata, in Agrostis stolonifera, topical, 144 h, read-out: Test G disease control rating, 40 ppm (marked *), 0 = no control): 0%; pest or weed control at 40 ppm ([6]; Colletotrichum orbiculare, in Cucumis sativus, 144 h, read-out: Test B disease control rating, 40 ppm (marked *), 0 = no control): 0%; pest or weed control at 200 ppm [7, 13]: 40%; pest or weed control at 40 ppm [8]: 97%; pest or weed control at 40 ppm [9, 14]: 99%
3 | CCC(C)Cn1c(-c2ccc(F)cc2F)c(C)nc(C#N)c1=NC(C)=O (stereo not drawn) [Compound 430, N-[3-Cyano-6-(2,4-difluorophenyl)-5-methyl-1-(2-methylbutyl)-2(1H)-pyrazinylidene]acetamide] |  |  |  |  |  |  |  |  |  |  | pest or weed control at 200 ppm [1]: 0%; pest or weed control at 200 ppm ([10]; Blumeria graminis, in Triticum aestivum, 168 h, read-out: Test L disease control rating, 200 ppm, 0 = no control relative to controls): 93%; pest or weed control at 200 ppm [2]: 0%; pest or weed control at 200 ppm ([3]; Parastagonospora nodorum, in Triticum aestivum, topical, 168 h, read-out: Test H disease control rating, 200 ppm, 0 = no control relative to controls): 0%; pest or weed control at 200 ppm [4, 12]: 0%; pest or weed control at 200 ppm ([5]; Waitea circinata, in Agrostis stolonifera, topical, 144 h, read-out: Test G disease control rating, 200 ppm, 0 = no control relative to controls): 0%; pest or weed control at 200 ppm ([6]; Colletotrichum orbiculare, in Cucumis sativus, 144 h, read-out: Test B disease control rating, 200 ppm, 0 = no control relative to controls): 0%; pest or weed control at 200 ppm [7, 13]: 0%; pest or weed control at 40 ppm [8]: 86%; pest or weed control at 200 ppm [9, 14]: 96%
4 | O=c1c(-n2cccn2)nc(Cl)c(-c2c(F)cccc2F)n1-c1ccc(F)c(F)c1 [compound 388] | 0* % | 0* % | 97* % | 0* % | 0* % | 67* % | 0* % | 100* % | 99* % | 0* % | 
5 | Cc1ccn(-c2nc(Cl)c(-c3c(F)cccc3F)n(-c3ccc(F)c(F)c3)c2=O)n1 [compound 389] | 0* % | 0* % | 94* % | 0* % | 31* % | 98* % | 0* % | 100* % | 99* % | 0* % | 
6 | CCCn1c(-c2c(F)cc(F)cc2F)c(Cl)nc(C(N)=O)c1=O [compound 413] |  |  | 99* % |  | 0* % | 0* % |  | 93* % | 99* % | 98* % | Test A disease control rating [1, 13]: 68%; Test F disease control rating [2, 13]: 95%; Test I disease control rating [4, 13]: 0%; Test D disease control rating [7, 13]: 64%
7 | CCC(C)Cn1c(-c2c(F)cc(F)cc2F)c(Cl)nc(C(N)=O)c1=O (stereo not drawn) [compound 415] |  |  | 100* % |  | 0* % | 91* % |  | 95* % | 99* % | 99* % | Test A disease control rating [1, 13]: 86%; Test F disease control rating [2, 13]: 99%; Test I disease control rating [4, 13]: 0%; Test D disease control rating [7, 13]: 95%
